Test results published in patent publication US12083089B2, “Compositions and methods for stimulating ventilatory and/or respiratory drive” (CASE WESTERN RESERVE UNIVERSITY, priority 2015, dated 2024).

Legend:
[1] = test system: freely moving adult male Sprague-Dawley rats; test: Whole-body plethysmography of ventilatory parameters in morphine-treated rats
Description: Permissions, rats, surgical procedures and blinding of protocols. All studies were carried out in accordance with the NIH Guide for the Care and Use of Laboratory Animals (NIH Publication No. […]) revised in 1996. The protocols were approved by the Animal Care and Use Committees of the University of Virginia, Case Western Reserve University and Loma Linda University. In addition, all studies were carried out in compliance with the ARRIVE (Animal Research: Reporting of In Vivo Experiments) guidelines. Adult male Sprague-Dawley rats (Harlan, Madison, WI, USA) were implanted with jugular vein catheters under 2% isoflurane anesthesia and some rats received femoral arterial catheters. The rats were allowed at least four days to recover from surgery before use. All arterial catheters were flushed daily with heparin solution (50 units of heparin in phosphate-buffered saline at 0.1 M, pH 7.4). All catheters were flushed with phosphate-buffered saline (0.1 M, pH 7.4) approximately four hours before commencement of the experiments. All studies were performed in a quiet laboratory with relative humidity of 49±2% and room temperature of 21.4±0.2° C. […] Also, please note that the antinociception and ventilatory studies were done in separate groups of rats so as to not complicate the respiratory measurements. The recording (plethysmography, antinociception) sessions and the arterial blood gas assays were done by a particular investigator who administered the opioid, vehicle or test drug such as d-cystine diME. The syringes containing the vehicle or test drug were made up by another investigator, such that the investigator running the actual experiment was blinded to the treatment protocol. In every case, the data files resulting from a particular study were first collated and analyzed by another investigator in the group.
Ventilatory parameters were recorded in freely moving rats by whole body plethysmography (PLY3223; Data Sciences International, St. Paul, MN). The rats were placed in individual chambers and given 60 min to acclimatize to allow true resting ventilatory parameters to be established. […] The rats received another injection of vehicle or 1-NACme (500 μmol/kg, IV) 15 min later and ventilatory parameters were recorded for a further 60 min.
The provided software (Fine Pointe, BUXCO) constantly corrected digitized values for changes in chamber temperature and humidity. Pressure changes associated with the respiratory waveforms were then converted to volumes (i.e., TV, PIF and PEF) using the algorithm of Epstein and colleagues. Specifically, factoring in chamber temperature and humidity, the cycle analyzers filtered the acquired signals, and BUXCO algorithms (Fine Pointe) generated an array of box flow data that identified a waveform segment as an acceptable breath. From that data vector, the minimum and maximum values were determined. Flows at this point were considered to be “box flow” signals.
The recorded data (1 min bins) and derived parameters, Vt/Ti and Response Area (cumulative percent changes from pre-values) were taken for statistical analyses. The pre-drug 1 min bins excluded occasional marked deviations from resting due to movements or scratching by the rats. These exclusions ensured accurate determinations of baseline parameters. The data are presented as mean±SEM. All data unless other-wise stated (see immediately below) were analyzed by one-way or two-way analysis of variance followed by Student's modified t test with Bonferroni corrections for multiple comparisons between means using the error mean square terms from each ANOVA. A value of P<0.05 denoted the initial level of statistical significance that was modified according to the number of comparisons between means.

conscious rats = test: Morphine-induced analgesia (paw withdrawal latency assay), Example 1; type: in vivo, rat; conditions: 500 μmol/kg i.v.; 10 mg/kg of morphine; FIG. 13
freely moving rats [2] = test: Hot-plate (hind-paw withdrawal) latency (HPL), Hargreaves's test, morphine 10 mg/kg; type: in vivo, rat
freely moving rats [3] = test: Tail-flick latency (TFL) test; type: in vivo, rat
[4] = 500 μmol/kg IV in morphine (10 mg/kg IV)-treated rats, FIG. 21
[5] = freely moving rats, morphine 10 mg/kg IV, then d-cystine diEE 500 μmol/kg IV 15 min later
[6] = 500 μmol/kg IV, before morphine
[7] = drug 500 μmol/kg IV 20 min before morphine 10 mg/kg IV

## CCOC(=O)[C@H](N)CSSC[C@@H](N)C(=O)OCC [D-Cystine diEE, D-Cystine diethylester]
[1]; [4]
  initial peak responses: Freq, TV, MV, PIF, PEF, EF50, inspiratory and expiratory drive: pronounced increases
  total response: Freq: relatively minor increase in Freq
  total response: TV, MV, PIF, PEF, PEF/PIF, EF50, inspiratory and expiratory drives: robust sustained increases
[1]; bolus 500 μmol/kg i.v. (D-CYSee 2×500 μmol/kg) after morphine 10 mg/kg i.v., conscious rats, Example 1
  ventilatory depressant effects of morphine incl. tidal volume/inspiratory time (Vt/Ti): immediate and sustained reversal
[1]; d-cystine diEE 500 μmol/kg IV, 15 min after morphine 10 mg/kg IV
  duration of the brief increase in Freq: about 5 min
[1]; [5]
  changes in EF50: further prompt and sustained increase
  changes in PEF/PIF: decrease in PEF/PIF immediately upon injection
  changes in expiratory drive (TV/Te): substantial and sustained increase
  changes in expiratory time (Te): without greatly affecting Te
  changes in frequency of breathing (Freq): brief increase in Freq of about 5 min in duration that was followed by a gradual and sustained elevation
  changes in inspiratory drive (TV/Ti): noticeable but partial recovery
  changes in inspiratory time (Ti): brief decrease in Ti
  changes in minute ventilation (MV): prompt and long-lasting reversal
  changes in peak expiratory flow (PEF): marked increase in PEF to levels well above pre-morphine levels
  changes in peak inspiratory flow (PIF): prompt and relatively sustained reversal
  changes in the ratio of Te/Ti: similarly
Conscious rats
  morphine analgesia: does not attenuate
Freely moving rats [2]; [6]
  HPL after the drug alone: transient increase
  time within which the transient increase in HPL resolved: ≤ 15 min
Freely moving rats [2]; [7]
  antinociceptive effects of morphine (HPL) in drug-pretreated rats: enhanced
Freely moving rats [3]; [6]
  TFL after the drug alone: transient increase
  time within which the transient increase in TFL resolved: ≤ 15 min
Freely moving rats [3]; [7]
  antinociceptive effects of morphine (TFL) in drug-pretreated rats: enhanced
